Patent publication US9725446B2, “7-azaindole derivatives” (MERCK PATENT GmbH, priority 2011, dated 2017)

Legend:
HCT 116 = assay: Tumour cell proliferation/vitality assay (Alamar Blue), HCT 116; assay type: cell-based; details: Homo sapiens; vitality assay, HCT 116 cells
Protocol: (§1) In the present experiment description, the inhibition of tumour cell proliferation/tumour cell vitality by active compounds is described.
(§2) The cells are sown in a suitable cell density in microtitre plates (96-well format) and the test substances are added in the form of a concentration series. After four further days of cultivation in serum-containing medium, the tumour cell proliferation/tumour cell vitality can be determined by means of an Alamar Blue test system.
(§3) The cells are cultivated in medium. At intervals of several days, the cells are detached from the culture dishes with the aid of trypsin solution and sown in suitable dilution in fresh medium. The cells are cultivated at 37° Celsius and 10% CO2.
(§4) A defined number of cells (for example 2000 cells) per culture/well in a volume of 180 μl of culture medium are sown in microtitre plates (96 well cell-culture plates) using a multichannel pipette. The cells are subsequently cultivated in a CO2 incubator (37° C. and 10% CO2).
(§5) The test substances are dissolved, for example, in DMSO and subsequently employed in corresponding concentration (if desired in a dilution series) in the cell culture medium. The dilution steps can be adapted depending on the efficiency of the active compounds and the desired spread of the concentrations. Cell culture medium is added to the test substances in corresponding concentrations. The addition of the test substances to the cells can take place on the same day as the sowing of the cells. To this end, in each case 20 μl of substance solution from the predilution plate are added to the cultures/wells. The cells are cultivated for a further 4 days at 37° Celsius and 10% CO2.
(§6) In each case, 20 μl of Alamar Blue reagent are added per well, and the microtitre plates are incubated, for example, for a further seven hours in a CO2 incubator (at 37° C. and 10% CO2). The plates are measured in a reader with a fluorescence filter at a wavelength of 540 nm. The plates can be shaken gently immediately before the measurement.
(§7) The absorbance value of the medium control (no cells and test substances used) is subtracted from all other absorbance values. The controls (cells without test substance) are set equal to 100 percent, and all other absorbance values are set in relation thereto (for example in % of control): […]

TGF-beta = assay: Inhibition of TGF-beta-mediated effects (elimination of TGF-beta-mediated growth inhibition, Mv1Lu cells, Crystal Violet); assay type: cell-based
Protocol: In-Vitro (Enzyme) Assay for Determination of the Efficacy of the Inhibitors of the Inhibition of TGF-Beta-Mediated Effects
As an example, the ability of the inhibitors to eliminate TGF-beta-mediated growth inhibition is tested.
Cells of the lung epithelial cell line Mv1Lu are sown in a defined cell density in a 96-well microtitre plate and cultivated overnight under standard conditions. Next day, the medium is replaced by medium which comprises 0.5% of FCS and 1 ng/ml of TGF-beta, and the test substances are added in defined concentrations, generally in the form of dilution series with 5-fold steps. The concentration of the solvent DMSO is constant at 0.5%. After a further two days, Crystal Violet staining of the cells is carried out. After extraction of the Crystal Violet from the fixed cells, the absorption is measured spectrophotometrically at 550 nm. It can be used as a quantitative measure of the adherent cells present and thus of the cell proliferation during the culture.

A2780 = assay: Tumour cell proliferation/vitality assay (Alamar Blue), A2780; assay type: cell-based; details: Homo sapiens; vitality assay, A2780 cells
Protocol: as §1, §2, §3, §4, §5, §6, §7

[1] = molecular target: TANK binding kinase (TBK1) (Homo sapiens (Human), UniProt Q9UHD2); assay: TBK1 kinase test (384-well flashplate); assay type: biochemical
TANK binding kinase (TBK1), sequence (Q9UHD2 whole entry, species assumed): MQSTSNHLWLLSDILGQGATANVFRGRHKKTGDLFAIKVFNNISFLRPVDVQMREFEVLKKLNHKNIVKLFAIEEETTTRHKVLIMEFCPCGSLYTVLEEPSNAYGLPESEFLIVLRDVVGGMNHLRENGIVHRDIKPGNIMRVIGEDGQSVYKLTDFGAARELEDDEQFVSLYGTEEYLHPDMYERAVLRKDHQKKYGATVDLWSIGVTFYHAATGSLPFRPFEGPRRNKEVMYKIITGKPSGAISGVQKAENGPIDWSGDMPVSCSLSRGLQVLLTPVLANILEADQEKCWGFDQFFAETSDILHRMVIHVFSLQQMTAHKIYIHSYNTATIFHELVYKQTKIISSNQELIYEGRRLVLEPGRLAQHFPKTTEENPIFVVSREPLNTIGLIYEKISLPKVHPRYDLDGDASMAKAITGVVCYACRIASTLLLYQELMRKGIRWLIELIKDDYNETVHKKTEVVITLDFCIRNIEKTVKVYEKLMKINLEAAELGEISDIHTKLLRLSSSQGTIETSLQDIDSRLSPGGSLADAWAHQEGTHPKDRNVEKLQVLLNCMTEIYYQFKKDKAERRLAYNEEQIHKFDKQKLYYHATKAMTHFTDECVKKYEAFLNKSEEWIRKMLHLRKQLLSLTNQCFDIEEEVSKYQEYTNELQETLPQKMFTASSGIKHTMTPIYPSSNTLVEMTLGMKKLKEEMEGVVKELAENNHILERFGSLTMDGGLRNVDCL
Protocol: (§8) The kinase assay is performed as 384-well flashplate assay.
0.6 nM TANK binding kinase (TBK1), 800 nM biotinylated MELK-derived peptide (biotin-Ah-Ah-[…]) and 10 μM ATP (with 0.25 μCi of ^33P-ATP/well) are incubated in a total volume of 50 μl (10 mM MOPS, 10 mM magnesium acetate, 0.1 mM EGTA, 1 mM DTT, 0.02% of Brij35, 0.1% of BSA, pH 7.5) with or without test substance at 30° C. for 120 min. The reaction is stopped using 25 μl of 200 mM EDTA solution, filtered off with suction after 30 min at room temperature, and the wells are washed 3 times with 100 μl of 0.9% NaCl solution. The non-specific proportion of the kinase reaction (blank) is determined using 100 nM staurosporine. Radioactivity is measured in the Topcount. IC50 values are calculated using RS1.

IKKε = IKKε (Homo sapiens (Human), UniProt Q14164); assay: IKKε kinase test (384-well flashplate); assay type: biochemical; details: read-out: IC50 [IKKepsilon]
IKKε, sequence (Q14164 whole entry, species assumed): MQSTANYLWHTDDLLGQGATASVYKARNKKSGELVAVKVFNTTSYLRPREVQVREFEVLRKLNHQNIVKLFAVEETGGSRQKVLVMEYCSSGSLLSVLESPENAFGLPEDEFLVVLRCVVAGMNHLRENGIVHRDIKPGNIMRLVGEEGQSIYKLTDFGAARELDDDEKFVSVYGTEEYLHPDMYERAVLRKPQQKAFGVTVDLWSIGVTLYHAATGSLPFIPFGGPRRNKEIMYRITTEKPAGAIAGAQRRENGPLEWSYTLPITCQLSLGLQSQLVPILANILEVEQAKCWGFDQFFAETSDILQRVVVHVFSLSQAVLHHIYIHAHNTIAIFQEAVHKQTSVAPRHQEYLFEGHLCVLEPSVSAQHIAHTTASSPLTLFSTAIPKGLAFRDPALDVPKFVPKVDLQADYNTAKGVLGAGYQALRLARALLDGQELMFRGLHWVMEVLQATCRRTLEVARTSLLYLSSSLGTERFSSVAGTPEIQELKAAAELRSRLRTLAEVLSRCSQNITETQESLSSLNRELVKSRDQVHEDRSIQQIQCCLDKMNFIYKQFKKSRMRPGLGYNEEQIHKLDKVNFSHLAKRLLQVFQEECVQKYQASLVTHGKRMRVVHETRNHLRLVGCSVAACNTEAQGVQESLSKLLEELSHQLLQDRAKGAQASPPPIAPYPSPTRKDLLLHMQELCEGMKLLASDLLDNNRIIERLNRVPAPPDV
Protocol: as §8
1 nM IKKε, 800 nM biotinylated IκBα(19-42) peptide (biotin-C6-C6-[…]) and 10 μM ATP (with 0.3 μCi of ^33P-ATP/well) are incubated in a total volume of 50 μl (10 mM MOPS, 10 mM magnesium acetate, 0.1 mM EGTA, 1 mM dithiothreitol, 0.02% of Brij35, 0.1% of BSA, 0.1% of BioStab, pH 7.5) with or without test substance at 30° C. for 120 min. The reaction is stopped using 25 μl of 200 mM EDTA solution, filtered off with suction after 30 min at room temperature, and the wells are washed 3 times with 100 μl of 0.9% NaCl solution. The non-specific proportion of the kinase reaction (blank) is determined using 3 μM EMD 1126352 (BX-795). Radioactivity is measured in the Topcount. IC50 values are calculated using RS1.

PDK1 = PDK1 (Homo sapiens (Human), UniProt O15530); assay: Test for the inhibition of PDK1 (flashplate, 33P-ATP); assay type: biochemical
PDK1, sequence (O15530 51-556): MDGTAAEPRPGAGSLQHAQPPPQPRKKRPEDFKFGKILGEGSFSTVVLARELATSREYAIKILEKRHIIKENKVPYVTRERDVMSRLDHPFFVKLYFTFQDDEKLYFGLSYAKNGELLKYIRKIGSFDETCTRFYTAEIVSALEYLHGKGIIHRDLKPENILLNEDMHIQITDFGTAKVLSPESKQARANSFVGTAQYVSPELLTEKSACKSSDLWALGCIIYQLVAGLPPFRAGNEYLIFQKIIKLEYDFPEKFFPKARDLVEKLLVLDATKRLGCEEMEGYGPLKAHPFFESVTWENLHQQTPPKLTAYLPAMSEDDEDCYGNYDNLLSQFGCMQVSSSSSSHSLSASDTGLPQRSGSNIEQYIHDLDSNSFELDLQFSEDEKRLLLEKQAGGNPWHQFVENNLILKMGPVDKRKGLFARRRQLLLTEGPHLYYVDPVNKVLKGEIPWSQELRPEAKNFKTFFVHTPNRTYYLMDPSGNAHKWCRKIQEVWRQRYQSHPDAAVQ
Protocol: The experimental batches are carried out in a flashplate system with 384 wells/microtitration plate.
(400 nM), 4 μM ATP (with 0.2 μCi of ^33P-ATP/well) and the test substance in 50 μl of conventional experimental solution per well are incubated at 30° C. for 60 min. The test substances are employed in corresponding concentrations (if desired in a dilution series). The control is carried out without test substance. The reaction is stopped using standard methods and washed. The activity of the kinase is measured via the incorporated radioactivity in top count. In order to determine the non-specific kinase reaction (blank value), the experimental batches are carried out in the presence of 100 nM staurosporine.
The radioactivity (decompositions per minute) of the blank value (no use of test substance in the presence of staurosporine) is subtracted from all other radioactivity values. The controls (kinase activity without test substance) are set equal to 100 percent and all other radioactivity values (after subtracting the blank value) are expressed set in relation thereto (for example in % of the control).

Row | IC50 (HCT 116) [nM] | IC50 (A2780) [nM] | IC50 [1] [nM] | IC50 (IKKε) [nM] | IC50 (PDK1) [nM] | SMILES | IC50 (TGF-beta) [nM]
1 | 1000 to 10000 |  |  |  |  | Nc1nccc2c(-c3c[nH]c4ncccc34)nccc12 [Compound A32, 5-(1H-pyrrolo[2,3-b]pyridin-3-yl)-2,6-naphthyridin-1-ylamine] | 0.5 to 1000
2 | 10 to 1000 | 10 to 1000 |  |  |  | c1ccc(-c2cc3nccc(-c4c[nH]c5ncccc45)c3o2)cc1 [Compound A21, 2-phenyl-7-(1H-pyrrolo[2,3-b]pyridin-3-yl)furo[3,2-b]pyridine] | 
3 | 1000 to 10000 | 1000 to 10000 | 1000 to 10000 |  |  | Nc1ncc(-c2c[nH]c3ncccc23)c2ccncc12 [Compound A24, 4-(1H-pyrrolo[2,3-b]pyridin-3-yl)-2,7-naphthyridin-1-ylamine] | 0.5 to 1000
4 |  |  | 0.5 to 1000 | 0.5 to 1000 | 0.5 to 1000 | Cn1cc(-c2cnc3[nH]cc(-c4cn(C)c5cnccc45)c3c2)cn1 [Compound A33, 1-methyl-3-[5-(1-methyl-1H-pyrazol-4-yl)-1H-pyrrolo[2,3-b]-pyridin-3-yl]-1H-pyrrolo[2,3-c]pyridine] | 0.5 to 1000
5 | 10 to 1000 | 10 to 1000 | 0.5 to 1000 | 0.5 to 1000 | 0.5 to 1000 | Cn1cc(-c2cnc3[nH]cc(-c4c[nH]c5cnccc45)c3c2)cn1 [Compound A20, 3-[5-(1-methyl-1H-pyrazol-4-yl)-1H-pyrrolo[2,3-b]pyridin-3-yl]-1H-pyrrolo[2,3-c]pyridine] | 0.5 to 1000
6 | 1000 to 10000 | 1000 to 10000 |  |  |  | Cc1[nH]c2ncccc2c1-c1nccc2c(N)nccc12 [Compound A31, 5-(2-methyl-1H-pyrrolo[2,3-b]pyridin-3-yl)-2,6-naphthyridin-1-ylamine] | 0.5 to 1000
7 |  |  | 0.5 to 1000 | 1000 to 10000 | 1000 to 10000 | c1cnc2[nH]cc(-c3c[nH]c4cnccc34)c2c1 [Compound A18, 3-(1H-pyrrolo[2,3-b]pyridin-3-yl)-1H-pyrrolo[2,3-c]pyridine] | 1000 to 10000
8 |  | 10 to 1000 | 0.5 to 1000 | 0.5 to 1000 | 1000 to 10000 | Cn1cc(-c2cnc3[nH]cc(-c4cn(S(=O)(=O)c5ccccc5)c5cnccc45)c3c2)cn1 [Compound A14, 1-benzenesulfonyl-3-[5-(1-methyl-1H-pyrazol-4-yl)-1H-pyrrolo[2,3-b]pyridin-3-yl]-1H-pyrrolo[2,3-c]pyridine] | 
9 | 1000 to 10000 | 1000 to 10000 |  |  |  | Cn1cc(-c2c[nH]c3cnccc23)c2cccnc21 [Compound A29, 3-(1-methyl-1H-pyrrolo[2,3-b]pyridin-3-yl)-1H-pyrrolo[2,3-c]-pyridine] | 

The remaining lines, values behind:

Row | SMILES | IC50 (HCT 116) [nM] | IC50 (A2780) [nM] | IC50 [1] [nM] | IC50 (IKKε) [nM] | IC50 (PDK1) [nM] | IC50 (TGF-beta) [nM]
10 | Nc1nccc2c(-c3c[nH]c4ncccc34)cccc12 [Compound A11, 5-(1H-pyrrolo[2,3-b]pyridin-3-yl)isoquinolin-1-ylamine] | 1000 to 10000 | 1000 to 10000 |  |  |  | 1000 to 10000
11 | Cn1cc(-c2c[nH]c3ncccc23)c2ccncc21 [Compound A19, 1-methyl-3-(1H-pyrrolo[2,3-b]pyridin-3-yl)-1H-pyrrolo[2,3-c]pyridine] |  |  |  |  |  | 1000 to 10000
12 | c1cnc2[nH]cc(-c3nccc4cnccc34)c2c1 [Compound A16, 1-(1H-pyrrolo[2,3-b]pyridin-3-yl)-2,6-naphthyridine] |  |  |  |  |  | 0.5 to 1000
13 | c1cnc2[nH]cc(-c3cnc4ncccn34)c2c1 [Compound A3, 3-(1H-pyrrolo[2,3-b]pyridin-3-yl)imidazo[1,2-a]pyrimidine] | 1000 to 10000 | 1000 to 10000 |  |  |  | 
14 | c1cc(-c2c[nH]c3ncccc23)c2ccncc2c1 [Compound A7, 5-(1H-pyrrolo[2,3-b]pyridin-3-yl)isoquinoline] | 1000 to 10000 | 1000 to 10000 | 1000 to 10000 | 1000 to 10000 |  | 0.5 to 1000
15 | Cn1cc(-c2cccc3cnccc23)c2cccnc21 [Compound A17, 5-(1-methyl-1H-pyrrolo[2,3-b]pyridin-3-yl)isoquinoline] |  |  |  |  |  | 0.5 to 1000
16 | c1ccc2c(-c3c[nH]c4ncccc34)cnnc2c1 [Compound A4, 4-(1H-pyrrolo[2,3-b]pyridin-3-yl)cinnoline] | 1000 to 10000 | 1000 to 10000 |  |  |  | 1000 to 10000
17 | Cc1[nH]c2ncccc2c1-c1cccc2cnccc12 [Compound A15, 5-(2-methyl-1H-pyrrolo[2,3-b]pyridin-3-yl)isoquinoline] |  |  |  |  |  | 0.5 to 1000
18 | Cc1[nH]c2ncccc2c1-c1nccc2cnccc12 [Compound A28, 1-(2-methyl-1H-pyrrolo[2,3-b]pyridin-3-yl)-2,6-naphthyridine] |  |  |  |  |  | 0.5 to 1000
19 | Nc1cc(-c2c[nH]c3ncccc23)c2ccccc2n1 [Compound A1, 4-(1H-pyrrolo[2,3-b]pyridin-3-yl)quinolin-2-ylamine] | 1000 to 10000 | 1000 to 10000 |  |  |  | 
